Literature values, collected in patent US20070059740A1, “METHOD OF TARGETING A2B ADENOSINE RECEPTOR ANTAGONIST THERAPY” (priority 2005, published 2007).

System: Zucker rats
Settings: A2B adenosine receptor antagonist, reported by LaNoue et al., U.S. Pat. No. 6,060,481

## CCCn1c(=O)c2[nH]c(-c3ccc(C=CC(=O)O)cc3)nc2n(CCC)c1=O [1,3-dipropyl-8-(p-acrylic)-phenylxanthine]
  glucose tolerance: improves glucose tolerance
